Source: patent publication US9381208B2, “Structure and use of 5′ phosphate oligonucleotides” (Rheinische Friedrich-Wilhelms-Universität, priority 2006, dated 2016)
{ppp} = triphosphate group

Test system: human primary monocytes
Experiment: IFN-α production in human primary monocytes transfected with RNA (ELISA)
Format: cell-based
Settings: for IFN-α-inducing activity conferred by the 5′ 4-nucleotide sequence: adenosine-initiated in vitro transcribed RNA oligonucleotides, FIG. 13; for IFN-α induction (*100%) mean: monocytes from three donors, 36 hours after transfection, normalized to the mean induction level of all oligonucleotides (=100%); for IFN-α production in monocytes: 200 ng RNA transfected, 24 hours, ELISA

Substance | IFN-α-inducing activity conferred by the 5′ 4-nucleotide sequence | IFN-α induction (*100%) mean | IFN-α induction level (24 hours after stimulation, five donors, mean±SEM) [pg/mL] | IFN-α production in monocytes
auggggggac acacacacac acacacacac (AUGGGGGGACACACACACACACACACACAC; RNA, 5' {ppp}, backbone not given here) [SEQ ID No. 172] | highest IFN-α-inducing activity | 1.38 *100% |  | 
aaggggggac acacacacac acacacacac (AAGGGGGGACACACACACACACACACACAC; RNA, 5' {ppp}, backbone not given here) [SEQ ID No. 149] | highest IFN-α-inducing activity | 1.11 *100% |  | 
acucggggac acacacacac acacacacac (ACUCGGGGACACACACACACACACACACAC; RNA, 5' {ppp}, backbone not given here) [SEQ ID No. 137] |  | 0.98 *100% |  | 
agaaggggac acacacacac acacacacac (AGAAGGGGACACACACACACACACACACAC; RNA, 5' {ppp}, backbone not given here) [SEQ ID No. 165] | highest IFN-α-inducing activity | 1.29 *100% |  | 
aucgggggac acacacacac acacacacac (AUCGGGGGACACACACACACACACACACAC; RNA, 5' {ppp}, backbone not given here) [SEQ ID No. 162] | highest IFN-α-inducing activity | 1.28 *100% |  | 
acagggggac acacacacac acacacacac (ACAGGGGGACACACACACACACACACACAC; RNA, 5' {ppp}, backbone not given here) [SEQ ID No. 150] | highest IFN-α-inducing activity | 1.12 *100% |  | 
accuggggac acacacacac acacacacac (ACCUGGGGACACACACACACACACACACAC; RNA, 5' {ppp}, backbone not given here) [SEQ ID No. 124] |  | 0.76 *100% |  | 
aggcggggac acacacacac acacacacac (AGGCGGGGACACACACACACACACACACAC; RNA, 5' {ppp}, backbone not given here) [SEQ ID No. 131] |  | 0.91 *100% |  | 
agcaggggac acacacacac acacacacac (AGCAGGGGACACACACACACACACACACAC; RNA, 5' {ppp}, backbone not given here) [SEQ ID No. 164] | highest IFN-α-inducing activity | 1.29 *100% |  | 
5′-pppGGGGCUGACCCUGAAGUUCAUCUUCCC-3′ [27-mer] |  |  | 5876 ± 1785 | 
auauggggac acacacacac acacacacac (AUAUGGGGACACACACACACACACACACAC; RNA, 5' {ppp}, backbone not given here) [SEQ ID No. 129] |  | 0.89 *100% |  | 
acauggggac acacacacac acacacacac (ACAUGGGGACACACACACACACACACACAC; RNA, 5' {ppp}, backbone not given here) [SEQ ID No. 148] | highest IFN-α-inducing activity | 1.11 *100% |  | 
auugggggac acacacacac acacacacac (AUUGGGGGACACACACACACACACACACAC; RNA, 5' {ppp}, backbone not given here) [SEQ ID No. 167] | highest IFN-α-inducing activity | 1.31 *100% |  | 
aucaggggac acacacacac acacacacac (AUCAGGGGACACACACACACACACACACAC; RNA, 5' {ppp}, backbone not given here) [SEQ ID No. 160] | highest IFN-α-inducing activity | 1.24 *100% |  | 
agugggggac acacacacac acacacacac (AGUGGGGGACACACACACACACACACACAC; RNA, 5' {ppp}, backbone not given here) [SEQ ID No. 143] | highest IFN-α-inducing activity | 1.01 *100% |  | 
aaguggggac acacacacac acacacacac (AAGUGGGGACACACACACACACACACACAC; RNA, 5' {ppp}, backbone not given here) [SEQ ID No. 174] | highest IFN-α-inducing activity | 1.40 *100% |  | 
Lipopolysaccharide [LPS, reference compound] |  |  |  | did not contribute to IFN-α production
aagaggggac acacacacac acacacacac (AAGAGGGGACACACACACACACACACACAC; RNA, 5' {ppp}, backbone not given here) [SEQ ID No. 134] |  | 0.95 *100% |  | 
agucggggac acacacacac acacacacac (AGUCGGGGACACACACACACACACACACAC; RNA, 5' {ppp}, backbone not given here) [SEQ ID No. 140] | highest IFN-α-inducing activity | 1.00 *100% |  | 
aauaggggac acacacacac acacacacac (AAUAGGGGACACACACACACACACACACAC; RNA, 5' {ppp}, backbone not given here) [SEQ ID No. 112] |  | 0.40 *100% |  | 
aguaggggac acacacacac acacacacac (AGUAGGGGACACACACACACACACACACAC; RNA, 5' {ppp}, backbone not given here) [SEQ ID No. 158] | highest IFN-α-inducing activity | 1.22 *100% |  | 
acguggggac acacacacac acacacacac (ACGUGGGGACACACACACACACACACACAC; RNA, 5' {ppp}, backbone not given here) [SEQ ID No. 125] |  | 0.77 *100% |  | 
aaacggggac acacacacac acacacacac (AAACGGGGACACACACACACACACACACAC; RNA, 5' {ppp}, backbone not given here) [SEQ ID No. 154] | highest IFN-α-inducing activity | 1.15 *100% |  | 
5′-pppAACCUGUCCUUCAAUUACC-3′ [RNA9.2s-5A] |  |  |  | paralleled RNA9.2-0A
aaugggggac acacacacac acacacacac (AAUGGGGGACACACACACACACACACACAC; RNA, 5' {ppp}, backbone not given here) [SEQ ID No. 136] |  | 0.96 *100% |  | 
agcuggggac acacacacac acacacacac (AGCUGGGGACACACACACACACACACACAC; RNA, 5' {ppp}, backbone not given here) [SEQ ID No. 120] |  | 0.69 *100% |  | 
agcgggggac acacacacac acacacacac (AGCGGGGGACACACACACACACACACACAC; RNA, 5' {ppp}, backbone not given here) [SEQ ID No. 115] |  | 0.52 *100% |  | 
